Laboratory results: article PMC11571207, “Stereorandomized Oncocins with Preserved Ribosome Binding and Antibacterial Activity” (Journal of Medicinal Chemistry, 2024)
Converted amounts (≈) assume the structure as drawn. Read-outs that look alike come from different tables or passages of the source. Non-standard residues stand in square brackets, D forms with d. Residues, ends and D or L forms follow the SMILES beside them. No end group written: not given here.

How the values were obtained:
[1] = test system: P. aeruginosa PA14 4.18 (pmrB); settings: for MIC P. aeruginosa PA14 4.18 (pmrB), 12.5% MHB / MIC P. aeruginosa PA14 4.18 (pmrB), full MHB: polymyxin B resistant strain, 16–20 h at 37 °C; for MIC P. aeruginosa PA14 4.18 (pmrB), 12.5% MHB: 12.5% MHB pH 7.4; for MIC P. aeruginosa PA14 4.18 (pmrB), full MHB: full MHB pH 7.4; for MIC P. aeruginosa PA14 4.18: supplement CSV
[2] = test system: K. pneumoniae NCTC 418; experiment: microbe, parasite or virus in culture; settings: for MIC K. pneumoniae, 12.5% MHB / MIC K. pneumoniae, Full MHB: K. pneumoniae NCTC 418, 16–20 h at 37 °C; for MIC K. pneumoniae, 12.5% MHB: 12.5% Müller–Hinton medium; for MIC K. pneumoniae, Full MHB: full Müller–Hinton medium; for MIC K. pneumoniae NCTC418: supplement CSV
How it was run: (§1)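 Read-out was visible growth after MTT addition, the MIC being the lowest inhibitory peptide concentration. Bacteria grown to log phase in LB were exposed in MH medium to peptide from 64 μg/mL in twofold dilutions for 15-18h at 37°C.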

[3] = test system: S. aureus COL (MRSA); experiment: microbe, parasite or virus in culture; settings: for MIC S. aureus, 12.5% MHB / MIC S. aureus, Full MHB: S. aureus COL (MRSA), 16–20 h at 37 °C; for MIC S. aureus, 12.5% MHB: 12.5% Müller–Hinton medium; for MIC S. aureus, Full MHB: full Müller–Hinton medium; for MIC S. aureus COL (MRSA): supplement CSV
How it was run: as §1

[4] = test system: E. coli W3110; experiment: microbe, parasite or virus in culture; settings: for MIC E. coli, 12.5% MHB / MIC E. coli, Full MHB: E. coli W3110, 16–20 h at 37 °C, broth microdilution; for MIC E. coli, 12.5% MHB: 12.5% Müller–Hinton medium; for MIC E. coli, Full MHB: full Müller–Hinton medium; for MIC E. coli W3110: supplement CSV
How it was run: as §1

[5] = test system: A. baumannii ATCC19606; experiment: microbe, parasite or virus in culture; settings: for MIC A. baumannii, 12.5% MHB / MIC A. baumannii, Full MHB: A. baumannii ATCC19606, 16–20 h at 37 °C; for MIC A. baumannii, 12.5% MHB: 12.5% Müller–Hinton medium; for MIC A. baumannii, Full MHB: full Müller–Hinton medium; for MIC A. baumannii ATCC19606: supplement CSV
How it was run: as §1

[6] = test system: P. aeruginosa PAO1; experiment: microbe, parasite or virus in culture; settings: for MIC P. aeruginosa, 12.5% MHB / MIC P. aeruginosa, Full MHB: P. aeruginosa PAO1, 16–20 h at 37 °C; for MIC P. aeruginosa, 12.5% MHB: 12.5% Müller–Hinton medium; for MIC P. aeruginosa, Full MHB: full Müller–Hinton medium; for MIC P. aeruginosa PAO1: supplement CSV
How it was run: as §1

For “VDKPPYLPRPRPPRRIYNR-NH2 [L-Onc, reference compound]”, the “MIC P. aeruginosa PA14 4.18 (pmrB), 12.5% MHB” value [1] was 32 µg/mL, the “MIC P. aeruginosa PA14 4.18 (pmrB), full MHB” value [1] was over 64 µg/mL and the “MIC P. aeruginosa PA14 4.18” value ([1]; 12.5% MH pH 7.4) was 32 µg/mL. For the same molecule, the “MIC P. aeruginosa PA14 4.18” value ([1]; full MH pH 7.4) was over 64 µg/mL, the “MIC K. pneumoniae, 12.5% MHB” value [2] was 4 / 4 μg/mL and the “MIC K. pneumoniae, Full MHB” value [2] was 4 / 4 μg/mL. The “MIC K. pneumoniae NCTC418” value ([2]; 12.5% MH pH 7.4) was 4 µg/mL, the “MIC K. pneumoniae NCTC418” value ([2]; full MH pH 7.4) was 4 µg/mL and the “MIC S. aureus, 12.5% MHB” value [3] was 32 µg/mL. The “MIC S. aureus, Full MHB” value [3] was over 64 µg/mL, the “MIC S. aureus COL (MRSA)” value ([3]; 12.5% MH pH 7.4) was 32 µg/mL and the “MIC S. aureus COL (MRSA)” value ([3]; full MH pH 7.4) was over 64 µg/mL. For the same molecule, the “MIC E. coli, 12.5% MHB” value [4] was 2 µg/mL, the “MIC E. coli, Full MHB” value [4] was 4 µg/mL and the “MIC E. coli W3110” value ([4]; 12.5% MH pH 7.4) was 2 µg/mL. For the same molecule, the “MIC E. coli W3110” value ([4]; full MH pH 7.4) was 4 µg/mL, the “MIC A. baumannii, 12.5% MHB” value [5] was 4 µg/mL and the “MIC A. baumannii, Full MHB” value [5] was 32 µg/mL. The “MIC A. baumannii ATCC19606” value ([5]; 12.5% MH pH 7.4) was 4 µg/mL, the “MIC A. baumannii ATCC19606” value ([5]; full MH pH 7.4) was 32 µg/mL and the “MIC P. aeruginosa, 12.5% MHB” value [6] was 16 µg/mL. For the same molecule, the “MIC P. aeruginosa, Full MHB” value [6] was over 64 µg/mL, the “MIC P. aeruginosa PAO1” value ([6]; 12.5% MH pH 7.4) was 16 µg/mL and the “MIC P. aeruginosa PAO1” value ([6]; full MH pH 7.4) was over 64 µg/mL.
For polymyxin B [PMB, reference compound], the “MIC P. aeruginosa PA14 4.18 (pmrB), 12.5% MHB” value [1] was 1 µg/mL, the “MIC P. aeruginosa PA14 4.18 (pmrB), full MHB” value [1] was 2 µg/mL and the “MIC P. aeruginosa PA14 4.18” value ([1]; 12.5% MH pH 7.4) was 1 µg/mL. For the same molecule, the “MIC P. aeruginosa PA14 4.18” value ([1]; full MH pH 7.4) was 2 µg/mL, the “MIC K. pneumoniae, 12.5% MHB” value [2] was 1 µg/mL and the “MIC K. pneumoniae, Full MHB” value [2] was 0.5 µg/mL. For the same molecule, the “MIC K. pneumoniae NCTC418” value ([2]; 12.5% MH pH 7.4) was 1 µg/mL, the “MIC K. pneumoniae NCTC418” value ([2]; full MH pH 7.4) was 0.5 µg/mL and the “MIC S. aureus, 12.5% MHB” value [3] was >16 / 16 μg/mL. For the same molecule, the “MIC S. aureus, Full MHB” value [3] was >16 / 16 μg/mL, the “MIC S. aureus COL (MRSA)” value ([3]; 12.5% MH pH 7.4) was 16 µg/mL and the “MIC S. aureus COL (MRSA)” value ([3]; full MH pH 7.4) was over 16 µg/mL. The “MIC E. coli, 12.5% MHB” value [4] was 0.5 µg/mL, the “MIC E. coli, Full MHB” value [4] was 0.25 µg/mL and the “MIC E. coli W3110” value ([4]; 12.5% MH pH 7.4) was 0.5 µg/mL. The “MIC E. coli W3110” value ([4]; full MH pH 7.4) was 0.25 µg/mL, the “MIC A. baumannii, 12.5% MHB” value [5] was 0.5 µg/mL and the “MIC A. baumannii, Full MHB” value [5] was 0.25 µg/mL. The “MIC A. baumannii ATCC19606” value ([5]; 12.5% MH pH 7.4) was 0.5 µg/mL, the “MIC A. baumannii ATCC19606” value ([5]; full MH pH 7.4) was 0.25 µg/mL and the “MIC P. aeruginosa, 12.5% MHB” value [6] was 1 µg/mL. For the same molecule, the “MIC P. aeruginosa, Full MHB” value [6] was 0.5 µg/mL, the “MIC P. aeruginosa PAO1” value ([6]; 12.5% MH pH 7.4) was 1 µg/mL and the “MIC P. aeruginosa PAO1” value ([6]; full MH pH 7.4) was 0.5 µg/mL.
`CC[C@@H](C)[C@@H](NC(=O)[C@@H](CCCNC(=N)N)NC(=O)[C@@H](CCCNC(=N)N)NC(=O)[C@H]1CCCN1C(=O)[C@H]1CCCN1C(=O)[C@@H](CCCNC(=N)N)NC(=O)[C@H]1CCCN1C(=O)[C@@H](CCCNC(=N)N)NC(=O)[C@H]1CCCN1C(=O)[C@@H](CC(C)C)NC(=O)[C@@H](Cc1ccc(O)cc1)NC(=O)[C@H]1CCCN1C(=O)[C@H]1CCCN1C(=O)[C@@H](CCCCN)NC(=O)[C@@H](CC(=O)O)NC(=O)[C@H](N)C(C)C)C(=O)N[C@H](Cc1ccc(O)cc1)C(=O)N[C@H](CC(N)=O)C(=O)N[C@H](CCCNC(=N)N)C(N)=O` [D-Onc] (H-[dV][dD][dK][dP][dP][dY][dL][dP][dR][dP][dR][dP][dP][dR][dR][dI][dY][dN][dR]-NH2) was tested, and the “MIC P. aeruginosa PA14 4.18 (pmrB), 12.5% MHB” value [1] was 16 µg/mL (≈ 6.69 µM), the “MIC P. aeruginosa PA14 4.18 (pmrB), full MHB” value [1] was over 64 µg/mL and the “MIC P. aeruginosa PA14 4.18” value ([1]; 12.5% MH pH 7.4) was 16 µg/mL (≈ 6.69 µM). For the same molecule, the “MIC P. aeruginosa PA14 4.18” value ([1]; full MH pH 7.4) was over 64 µg/mL, the “MIC K. pneumoniae, 12.5% MHB” value [2] was over 16 µg/mL and the “MIC K. pneumoniae, Full MHB” value [2] was over 64 µg/mL. For the same molecule, the “MIC K. pneumoniae NCTC418” value ([2]; 12.5% MH pH 7.4) was over 16 µg/mL, the “MIC K. pneumoniae NCTC418” value ([2]; full MH pH 7.4) was over 64 µg/mL and the “MIC S. aureus, 12.5% MHB” value [3] was >64 / 64 μg/mL. For the same molecule, the “MIC S. aureus, Full MHB” value [3] was >64 / 64 μg/mL, the “MIC S. aureus COL (MRSA)” value ([3]; 12.5% MH pH 7.4) was 64 µg/mL (≈ 26.8 µM) and the “MIC S. aureus COL (MRSA)” value ([3]; full MH pH 7.4) was over 64 µg/mL. For the same molecule, the “MIC E. coli, 12.5% MHB” value [4] was 8 µg/mL (≈ 3.35 µM), the “MIC E. coli, Full MHB” value [4] was 32 µg/mL (≈ 13.4 µM) and the “MIC E. coli W3110” value ([4]; 12.5% MH pH 7.4) was 8 µg/mL (≈ 3.35 µM). For the same molecule, the “MIC E. coli W3110” value ([4]; full MH pH 7.4) was 32 µg/mL (≈ 13.4 µM), the “MIC A. baumannii, 12.5% MHB” value [5] was 16 µg/mL (≈ 6.69 µM) and the “MIC A. baumannii, Full MHB” value [5] was over 64 µg/mL. For the same molecule, the “MIC A. baumannii ATCC19606” value ([5]; 12.5% MH pH 7.4) was 16 µg/mL (≈ 6.69 µM), the “MIC A. baumannii ATCC19606” value ([5]; full MH pH 7.4) was over 64 µg/mL and the “MIC P. aeruginosa, 12.5% MHB” value [6] was 8 µg/mL (≈ 3.35 µM). The “MIC P. aeruginosa, Full MHB” value [6] was over 64 µg/mL, the “MIC P. aeruginosa PAO1” value ([6]; 12.5% MH pH 7.4) was 8 µg/mL (≈ 3.35 µM) and the “MIC P. aeruginosa PAO1” value ([6]; full MH pH 7.4) was over 64 µg/mL.
